Reference: publication PMC3402595 (Breast Cancer Research and Treatment, 2012)
Where a SMILES comes first, the peptide text is derived from it. [ ]: non-standard residue; d: D form. pS = N[C@@H](COP(=O)(O)O)C(=O)O

Tests used:
BRCT(BRCA1) [1] = target: T1, BRCT(BRCA1) (Homo sapiens, UniProt P38398); conditions: systematic structure activity relationship study; ref [3]; cited from earlier work
BRCT(BRCA1) [2] = target: T1, BRCT(BRCA1); experiment: Competitive fluorescence polarization, inhibition of BRCT; type: binding
[3] = Precipitation of Olaparib; type: physicochemical

T1 sequence (P38398 1646-1859 limits assumed): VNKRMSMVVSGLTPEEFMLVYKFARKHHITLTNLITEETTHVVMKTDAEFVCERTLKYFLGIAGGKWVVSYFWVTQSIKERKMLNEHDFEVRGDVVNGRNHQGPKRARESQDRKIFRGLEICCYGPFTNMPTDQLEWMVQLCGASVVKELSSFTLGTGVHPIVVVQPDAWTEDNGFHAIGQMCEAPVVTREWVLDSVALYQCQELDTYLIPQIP

| SMILES | binding affinity for BRCT(BRCA1) (BRCT(BRCA1) [1]) | Ki (BRCT(BRCA1) [2]) [nM] | concentration at which precipitation of Olaparib was observed [3] |
| --- | --- | --- | --- |
| CC(=O)N[C@@H](COP(=O)(O)O)C(=O)N1CCC[C@H]1C(=O)N[C@H](C(=O)N[C@@H](Cc1ccccc1)C(=O)O)[C@@H](C)O [Inhibitor 1, Ac-pSPTF-CO2H] (Ac-[pS]PTF-OH) | nanomolar binding affinities | 230 ± 60 |  |
| O=C(c1cc(Cc2n[nH]c(=O)c3ccccc23)ccc1F)N1CCN(C(=O)C2CC2)CC1 [Olaparib] |  |  | higher than 25 μM |
